Reference: ChEMBL document CHEMBL6078657, “Thiazolidinedione-based structure modification of ergosterol peroxide provides thiazolidinedione-conjugated derivatives as potent agents against breast cancer cells through a PI3K/AKT/mTOR pathway” (Bioorg Med Chem, 2025)

Assays:
MCF7 [1] = experiment: Induction of apoptosis in human MCF7 cells assessed as necrotic cells at 6 uM measured after 48 hrs incubation by Annexin V-FITC/PI double staining assay (reference value: 0.77%); format: functional
MCF7 [2] = experiment: Induction of apoptosis in human MCF7 cells assessed as necrotic cells at 3 uM measured after 48 hrs incubation by Annexin V-FITC/PI double staining assay (reference value: 0.77%); format: functional
MCF7 [3] = experiment: Induction of apoptosis in human MCF7 cells assessed as decrease in mitochondrial membrane potential by measuring increase in JC-1 monomer (green fluorescence) incubated for 48 hrs by JC-1 staining based flow cytometry analysis; format: functional, cell-based; conditions: dose 1-6 µM
MCF7 [4] = experiment: Induction of apoptosis in human MCF7 cells assessed as decrease in mitochondrial membrane potential by measuring increase in JC-1 monomer (green fluorescence) at 1 uM incubated for 48 hrs by JC-1 staining based flow cytometry analysis (reference value: 2.96%); format: functional; parameters: scale not given: the % may be the effect or the level left
MCF7 [5] = experiment: Induction of apoptosis in human MCF7 cells assessed as decrease in mitochondrial membrane potential by measuring increase in JC-1 monomer (green fluorescence) at 3 uM incubated for 48 hrs by JC-1 staining based flow cytometry analysis (reference value: 2.96%); format: functional; parameters: scale not given: the % may be the effect or the level left
MCF7 [6] = experiment: Induction of cell cycle arrest in human MCF7 cells assessed as accumulation of cells at G2/M phase at 6 uM measured after 48 hrs by PI staining based flow cytometry analysis (reference value: 16.91%); format: functional
MCF7 [7] = experiment: Induction of cell cycle arrest in human MCF7 cells assessed as accumulation of cells at G0/G1 phase at 1 uM measured after 48 hrs by PI staining based flow cytometry analysis (reference value: 58.42%); format: functional
MCF7 [8] = experiment: Induction of cell cycle arrest in human MCF7 cells assessed as accumulation of cells at G2/M phase at 1 uM measured after 48 hrs by PI staining based flow cytometry analysis (reference value: 16.91%); format: functional
MCF7 [9] = experiment: Inhibition of phosphorylation of PI3K in human MCF7 cells measured after 48 hrs by Western blot analysis; format: cell-based; conditions: dose 1-6 µM
[10] = biological target: Serine/threonine-protein kinase mTOR (Homo sapiens) (UniProt P42345); experiment: Inhibition of phosphorylation of mTOR in human MCF7 cells measured after 48 hrs by Western blot analysis; format: cell-based; conditions: dose 1-6 µM
4T1 = experiment: In vivo antitumor activity against mouse 4T1 cells transfected in BALB/c mouse assessed as tumor growth inhibition at 15 mg/kg, ip daily for 14 consecutive days relative to control; format: functional; conditions: 4T1, 336 h, time 14 day, read-out: TGI
[11] = Toxicity in healthy BALB/c mouse assessed as pathological changes in spleen at 20 mg/kg, ip daily for 14 consecutive days by HE staining based assay; format: organism-based; conditions: in vivo, 336 h, time 14 day

Question: For CC(C)[C@@H](C)/C=C/[C@@H](C)[C@H]1CC[C@@H]2[C@]1(C)CC[C@H]1[C@]23C=C[C@]2(C[C@@H](OC(=O)NCCNC(=O)CN4C(=O)S/C(=C\c5cccc6ccccc56)C4=O)CC[C@]12C)OO3, which Activity (MCF7 [1]) is on record?
Answer: 0.72%

Question: What about the Activity (MCF7 [2]) of the same compound?
Answer: 0.77%

Question: What about the Activity (MCF7 [3]) of the same compound?
Answer: Dose-dependent-effect

Question: And the Activity (MCF7 [4])?
Answer: 12.9%

Question: What about the Activity (MCF7 [5]) of the same compound?
Answer: 26.2%

Question: What about the Activity (MCF7 [6]) of the same compound?
Answer: 7.27%

Question: What about the Activity (MCF7 [7]) of the same compound?
Answer: 66.09%

Question: What about the Activity (MCF7 [8]) of the same compound?
Answer: 18.98%

Question: And the inhibition (MCF7 [9])?
Answer: Dose-dependent-effect

Question: What about the inhibition [10] of the same compound?
Answer: Dose-dependent-effect

Question: What about the inhibition in vivo at 15 mg/kg (4T1) of the same compound?
Answer: 33.5%

Question: And the Activity [11]?
Answer: Non-toxic
